Earlier results on 2 compounds are cited in patent publication US20220087927A1, “ANTIMICROBIAL AGENT” (priority 2020, published 2022).

What all share (conditions): suspension 10^7-10^8 per ml
The test system of one data set is Staphylococcus aureus.
Data set [1] concerns Candida (candida albicians).
In data set [2] the test system is E. coli (Escherichia coli).
Data set [3] has as its system Koji mold (asprogillus brasiliensis).
In the next data set the test system is Pseudomonas aeruginosa.

`OCCCCO` [butylene glycol]: the “MIC (minimum growth prevention concentration)” value in the data set with Staphylococcus aureus is given as 16%; in data set [1], 14%; in data set [2] it was 10%; in data set [3], 18%; in the data set on Pseudomonas aeruginosa, 8%.
With `CCO` [ethanol], the “MIC (minimum growth prevention concentration)” value in the data set with Staphylococcus aureus is given as 9%; in data set [1], 7%; in data set [2] it was 5%; in data set [3], 5%; with Pseudomonas aeruginosa, 5%.
